The values that follow come from ChEMBL document CHEMBL1154402, “Antiviral effect of orally administered (-)-beta-D-2-aminopurine dioxolane in woodchucks with chronic woodchuck hepatitis virus infection” (Antimicrob Agents Chemother, 2007).

The test system of this experiment is Woodchuck hepatitis virus. The experiment can be described thus: Antiviral activity against woodchuck hepatitis virus infected woodchucks assessed as log reduction of serum viral DNA per ml of serum after 4 weeks. Format: functional.

On to `CC(C)OC(=O)OCOP(=O)(CO[C@H](C)Cn1cnc2c(N)ncnc21)OCOC(=O)OC(C)C.O=C(O)/C=C/C(=O)O` [TENOFOVIR DISOPROXIL FUMARATE], for which the Activity was 1.5. For `CCCCCCCCCCCCCCCCOCCCOP(=O)(O)OCCOCn1cnc2c(=O)[nH]c(N)nc21`, the Activity was 1.4. The value for `Nc1nc(=O)n([C@@H]2CS[C@H](CO)O2)cc1F` [EMTRICITABINE] was 4.9.

In the case of `Nc1ncnc2c1ncn2[C@H]1C[C@H](O)[C@@H](CO)O1` [DEOXYADENOSINE], the Activity turned out to be 1.5. The value for `Cc1cn([C@H]2O[C@@H](CO)[C@H](O)[C@H]2F)c(=O)[nH]c1=O` [CLEVUDINE] was 8.2; that for `CC(=O)OCC(CCn1cnc2cnc(N)nc21)COC(C)=O` [FAMCICLOVIR] was 1.4; that for `Cc1cn([C@@H]2C[C@@H](O)[C@H](CO)O2)c(=O)[nH]c1=O` [TELBIVUDINE] was 7.
